Source: patent EP4733301A1 (priority 2023, dated 2025)
Values joined by “and” are separate entries in the source; they are usually repeats but may differ in a detail not shown here. Equal entries are not always repeated. Non-standard residues stand in square brackets, D forms with d. Residues, ends and D or L forms follow the SMILES beside them. *: point of attachment. Dolaproine = CO[C@@H]([C@@H]1CCCN1)[C@@H](C)C(=O)O; Dil = CC[C@H](C)[C@H](NC)[C@@H](CC(=O)O)OC; X1 = C[C@@H](N*)[C@@H](O)c1ccccc1; NMeV = CN[C@H](C(=O)O)C(C)C

System: 4T1-FAP cells
Assay: CCK-8 cell viability assay (cytotoxicity of MMAE and NAPC-ADC)
Assay type: cell-based, Mouse
Conditions: 72 hour incubation
Procedure: Cell viability was assessed using CCK-8 assay. Each experiment was performed in triplicate. To detect cytotoxicity of MMAE and NAPC-ADC, 4T1-FAP cells were seeded at 5×10^4 /mL in 96-well plates in 200 µL rmi-1640 medium containing 10% FBS and 1% penicillin/streptomycin, incubated at 37 °C in a 5% CO2 incubator for 24 hours, then incubated with different concentrations of MMAE and NAPC-ADC for 72 hour, and blank medium containing CCK-8 at a final concentration of 0.5 mg/mL was added. Incubated at 37 °C, 5% CO2 for 2 hours, absorbance was measured at 450 nm. The absorbance of treated cells was compared to that of the control group, whose viability was set at 100%.

Structure (SMILES): CC[C@H](C)[C@@H]([C@@H](CC(=O)N1CCC[C@H]1[C@H](OC)[C@@H](C)C(=O)N[C@H](C)[C@@H](O)c1ccccc1)OC)N(C)C(=O)[C@@H](NC(=O)[C@@H](NC)C(C)C)C(C)C [MMAE] (H-[NMeV]V[Dil][Dolaproine]-X1)
- IC50: < 1.69 nM and 1.69 nM
